These results are taken from patent US20240327381A1, “Compounds and Compositions for Selective Degradation of Engineered Proteins” (Celgene Corporation, priority 2023, published 2024).

Assay [1] has as its target T1, IKZF1 ZNF2_ZNF3 Q1F degron-tagged CD19 CAR (Homo sapiens, UniProt Q13422, Q146F).
T1 construct: ZNF2_ZNF3 Q1F degron (GERPFFCNQCGASFTQKGNLLRHIKLHSGEKPFKCHLCNYACRRRDALTGHLRTHS); fused on or other part: anti-CD19 scFv, CD28 transmembrane domain, 4-1BB costimulatory domain, CD3 zeta signaling domain (the CAR that carries the degron), and Nluc
Put plainly: Degradation of Q1F degron-tagged CD19 CAR in Jurkat cells (flow cytometry of CAR levels). It is filed as cell-based. The conditions noted are these: for DC50: Jurkat cells expressing CD19 CAR tagged with IKZF1 ZNF2_ZNF3 Q1F, 18 hours at 37° C., CAR levels normalized to untreated cells, read-out: Q1F Jurkat IC50; for Dmax: read-out: Q1F Jurkat-YMax. The method in brief:
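Jurkat cells were lentivirally transduced with an anti-CD19 scFv/CD28 TM/4-1BB/CD3ζ CAR tagged with an IKZF1 ZNF2_ZNF3 Q1F degron–Nluc, then treated with compound titrations for 18 h at 37 °C. CAR surface levels were stained (20 min, 4 °C), read by flow cytometry and normalised to untreated cells. EC50 came from a four-parameter logistic fit; Ymin is the minimum % CAR remaining.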
(In general: In flow cytometry, cells or beads pass a laser one at a time.)

The next assay concerns the target T2, Helios (Homo sapiens, UniProt Q9UKS7).
T2 construct: endogenous in cells; host or cells: Jurkat cells, CRISPR/Cas9 knock-in of HiBit at the IKZF2 locus
Briefly: Helios degradation in Jurkat/Helios/HiBit cells (Nano-Glo luminescence). It is filed as cell-based. The conditions noted are these: 18 hr, read-out: Helios Jurkat Hibit IC50. In a few lines: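 Jurkat cells carrying CRISPR-knocked-in C-terminal HiBit-tagged endogenous IKZF2 were treated with compound in DMEM/10% FCS (10,000 cells/well) for 18 h at 37 °C. HiBit signal was read by Nano-Glo luminescence after 30 min at RT. EC50 for degradation came from a four-parameter logistic fit, with Ymax as % protein degraded.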

Where [2] appears, read: Ymax is the % protein degraded, Jurkat cells expressing Q1F degron-tagged CD19 CAR, 18 hours.

Read-outs that look alike come from different tables or passages of the source. Where only a bound is given, the exact number is not on record here.

T1 sequence (Q13422 whole entry Q146F, the tested form may be a part): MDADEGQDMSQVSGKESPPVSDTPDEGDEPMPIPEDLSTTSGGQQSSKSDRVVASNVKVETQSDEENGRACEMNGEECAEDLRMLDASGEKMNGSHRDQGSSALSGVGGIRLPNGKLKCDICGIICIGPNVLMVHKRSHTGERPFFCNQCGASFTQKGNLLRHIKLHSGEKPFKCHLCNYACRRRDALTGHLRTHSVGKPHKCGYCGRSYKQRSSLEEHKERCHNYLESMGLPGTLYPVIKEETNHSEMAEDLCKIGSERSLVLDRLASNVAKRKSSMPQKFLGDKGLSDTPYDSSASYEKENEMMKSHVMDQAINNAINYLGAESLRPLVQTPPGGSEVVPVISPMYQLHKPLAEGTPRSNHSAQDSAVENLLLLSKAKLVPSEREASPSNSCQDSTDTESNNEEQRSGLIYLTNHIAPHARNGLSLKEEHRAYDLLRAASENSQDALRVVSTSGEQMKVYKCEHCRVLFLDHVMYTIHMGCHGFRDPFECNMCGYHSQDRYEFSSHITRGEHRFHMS
T2 sequence (Q9UKS7 whole entry): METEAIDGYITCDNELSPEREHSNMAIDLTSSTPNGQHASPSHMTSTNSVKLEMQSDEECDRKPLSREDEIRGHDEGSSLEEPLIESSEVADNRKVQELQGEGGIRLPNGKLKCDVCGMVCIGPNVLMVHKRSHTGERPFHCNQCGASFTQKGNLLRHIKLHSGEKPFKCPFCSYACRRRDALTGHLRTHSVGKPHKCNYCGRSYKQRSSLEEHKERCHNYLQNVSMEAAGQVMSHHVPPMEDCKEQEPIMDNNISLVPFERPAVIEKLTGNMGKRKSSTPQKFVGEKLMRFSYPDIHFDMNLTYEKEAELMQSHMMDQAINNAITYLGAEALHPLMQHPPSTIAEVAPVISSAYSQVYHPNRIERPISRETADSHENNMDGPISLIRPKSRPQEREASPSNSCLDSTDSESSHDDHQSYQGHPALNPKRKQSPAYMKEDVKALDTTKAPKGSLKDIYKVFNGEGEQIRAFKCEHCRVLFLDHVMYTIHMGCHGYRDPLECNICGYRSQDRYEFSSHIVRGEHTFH
T2 sequence (Q96SW2 whole entry, further chain): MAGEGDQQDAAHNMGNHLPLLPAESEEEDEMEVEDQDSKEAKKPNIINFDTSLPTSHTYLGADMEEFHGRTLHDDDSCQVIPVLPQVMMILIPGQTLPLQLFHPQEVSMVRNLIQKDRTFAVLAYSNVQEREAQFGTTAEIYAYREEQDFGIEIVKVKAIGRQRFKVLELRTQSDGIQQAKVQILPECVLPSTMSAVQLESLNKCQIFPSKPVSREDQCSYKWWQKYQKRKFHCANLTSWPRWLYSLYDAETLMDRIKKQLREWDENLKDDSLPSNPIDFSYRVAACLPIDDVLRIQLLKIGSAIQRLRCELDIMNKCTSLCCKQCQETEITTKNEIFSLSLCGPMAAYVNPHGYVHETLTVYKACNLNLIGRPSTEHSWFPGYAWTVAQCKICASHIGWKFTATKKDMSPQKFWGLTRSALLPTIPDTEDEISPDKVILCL
T2 sequence (Q16531 whole entry partner): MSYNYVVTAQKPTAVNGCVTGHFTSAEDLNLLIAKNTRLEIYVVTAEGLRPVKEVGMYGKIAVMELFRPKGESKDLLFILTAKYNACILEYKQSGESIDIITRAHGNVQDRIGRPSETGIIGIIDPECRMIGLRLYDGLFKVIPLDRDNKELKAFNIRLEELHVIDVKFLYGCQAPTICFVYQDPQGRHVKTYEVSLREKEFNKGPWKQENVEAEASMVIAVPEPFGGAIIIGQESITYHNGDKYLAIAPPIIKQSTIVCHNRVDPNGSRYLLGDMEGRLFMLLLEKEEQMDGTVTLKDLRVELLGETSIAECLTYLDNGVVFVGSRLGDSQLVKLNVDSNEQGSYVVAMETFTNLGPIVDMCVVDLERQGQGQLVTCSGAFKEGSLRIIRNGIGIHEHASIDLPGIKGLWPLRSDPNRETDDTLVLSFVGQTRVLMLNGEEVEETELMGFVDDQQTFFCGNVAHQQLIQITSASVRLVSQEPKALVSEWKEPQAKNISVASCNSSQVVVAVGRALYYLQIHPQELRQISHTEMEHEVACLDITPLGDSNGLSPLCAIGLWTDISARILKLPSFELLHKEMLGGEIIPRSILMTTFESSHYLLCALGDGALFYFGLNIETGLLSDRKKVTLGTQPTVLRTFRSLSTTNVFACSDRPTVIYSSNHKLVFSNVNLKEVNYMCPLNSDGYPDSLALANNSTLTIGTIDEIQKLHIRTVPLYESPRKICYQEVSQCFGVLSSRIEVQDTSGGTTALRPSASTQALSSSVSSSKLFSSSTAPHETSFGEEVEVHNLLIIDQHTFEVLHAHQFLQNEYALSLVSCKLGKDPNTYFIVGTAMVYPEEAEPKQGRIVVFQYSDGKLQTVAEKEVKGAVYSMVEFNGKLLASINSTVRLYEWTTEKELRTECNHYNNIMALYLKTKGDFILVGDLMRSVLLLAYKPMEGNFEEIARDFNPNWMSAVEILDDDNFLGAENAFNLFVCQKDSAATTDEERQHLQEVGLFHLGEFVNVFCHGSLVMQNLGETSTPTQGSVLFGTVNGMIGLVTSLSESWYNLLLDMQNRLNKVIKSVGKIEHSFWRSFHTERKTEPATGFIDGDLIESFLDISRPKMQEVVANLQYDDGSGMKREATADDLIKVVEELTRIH

Turning to `O=C1CCC(N2Cc3c(cc(F)c(C4(O)CCN(Cc5ccc6nc[nH]c6c5)CC4)c3F)C2=O)C(=O)N1` (stereo not drawn) [Compound 44, 3-[5-[1-(3H-benzimidazol-5-ylmethyl)-4-hydroxy-4-piperidyl]-4,6-difluoro-1-oxo-isoindolin-2-yl]piperidine-2,6-dione], the DC50 was 120 nM in assay [1] and no less than 10000 nM on Helios. For the same molecule, in assay [1] (setting [2]), the Dmax is 82.1%.

Consider `O=C1CCC(N2Cc3c(cc(F)c(C4CCN(Cc5ccc6c(c5)CCC6)CC4)c3F)C2=O)C(=O)N1` (stereo not drawn) [Compound 60, 3-(5-(1-((2,3-dihydro-1H-inden-5-yl)methyl)piperidin-4-yl)-4,6-difluoro-1-oxoisoindolin-2-yl)piperidine-2,6-dione], for which the DC50 in assay [1] is 0.691 nM; at Helios, no less than 10000 nM. Moreover, in assay [1] (setting [2]), the Dmax was 91.8%.

As for `O=C1CCC(N2Cc3c(cc(F)c(CNCc4ccc(C(F)F)cc4)c3F)C2=O)C(=O)N1` (stereo not drawn) [Compound 79, 3-(5-(((4-(difluoromethyl)benzyl)amino)methyl)-4,6-difluoro-1-oxoisoindolin-2-yl)piperidine-2,6-dione], the values for the DC50 (in assay [1]; on Helios) were 162 nM and no less than 10000 nM, respectively. Moreover, the Dmax in assay [1] (setting [2]) came to 60%.

Consider `Cc1cc(-c2c(F)cc3c(c2F)CN(C2CCC(=O)NC2=O)C3=O)nc(N)c1C` (stereo not drawn) [Compound 93, 3-(5-(6-amino-4,5-dimethylpyridin-2-yl)-4,6-difluoro-1-oxoisoindolin-2-yl) piperidine-2,6-dione], for which the DC50 in assay [1] is 217 nM; on Helios, no less than 10000 nM. Also, the Dmax in assay [1] (Jurkat, 18 h) came to 69.1%.

For the molecule `Cc1ccc(CN2CCC(c3cc4c(cc3F)C(=O)N(C3CCC(=O)NC3=O)C4)CC2)cc1` (stereo not drawn) [Compound 84, 3-(6-fluoro-5-(1-(4-methylbenzyl)piperidin-4-yl)-1-oxoisoindolin-2-yl)piperidine-2,6-dione], the figures for the DC50 (in assay [1]; on Helios) were 2.1 nM and no less than 10000 nM, respectively. For the same molecule, in assay [1] (setting [2]), the Dmax came to 90.3%.

Consider `N#Cc1ccc2c(c1)CN(C(=O)c1c(F)cc3c(c1F)CN(C1CCC(=O)NC1=O)C3=O)CC2` (stereo not drawn) [Compound 70, 2-[2-(2,6-dioxo-3-piperidyl)-4,6-difluoro-1-oxo-isoindoline-5-carbonyl]-3,4-dihydro-1H-isoquinoline-7-carbonitrile], for which the figures for the DC50 (in assay [1]; on Helios) were 15 nM and no less than 10000 nM, respectively. The Dmax in assay [1] (Jurkat, 18 h) worked out at 95.5%.

`CNc1ccc2c(n1)CN(C(=O)c1c(F)cc3c(c1F)CN(C1CCC(=O)NC1=O)C3=O)C2` (stereo not drawn) [Compound 73, 3-[4,6-difluoro-5-[2-(methylamino)-5,7-dihydropyrrolo[3,4-b]pyridine-6-carbonyl]-1-oxo-isoindolin-2-yl]piperidine-2,6-dione]: the DC50 is 3.11 nM in assay [1] and no less than 10000 nM on Helios. Also, the Dmax in assay [1] (Jurkat, 18 h) is 95.3%.

`O=C1CCC(N2Cc3c(cc(F)c(C4CCN(Cc5ccc6ccccc6n5)CC4)c3F)C2=O)C(=O)N1` (stereo not drawn) [Compound 53, 3-(4,6-difluoro-1-oxo-5-(1-(quinolin-2-ylmethyl)piperidin-4-yl)isoindolin-2-yl)piperidine-2,6-dione]: the DC50 in assay [1] is 0.727 nM; at Helios it was no less than 10000 nM. Also, in assay [1] (setting [2]), the Dmax was found to be 93.3%.

For `O=C1CCC(N2Cc3c(cc(F)c(C4(O)CCN(Cc5cccc(C(F)(F)F)c5)CC4)c3F)C2=O)C(=O)N1` (stereo not drawn) [Compound 26, 3-(4,6-difluoro-5-(4-hydroxy-1-(3-(trifluoromethyl)benzyl)piperidin-4-yl)-1-oxoisoindolin-2-yl)piperidine-2,6-dione], the values for the DC50 (in assay [1]; at Helios) were 6.42 nM and no less than 10000 nM, respectively. Also, the Dmax in assay [1] (setting [2]) worked out at 78.2%.

In the case of `O=C1CCC(N2Cc3c(cc(F)c(C4(O)CCN(Cc5cccc(-n6cccn6)c5)CC4)c3F)C2=O)C(=O)N1` (stereo not drawn) [Compound 15, 3-(5-(1-(3-(1H-pyrazol-1-yl)benzyl)-4-hydroxypiperidin-4-yl)-4,6-difluoro-1-oxoisoindolin-2-yl)piperidine-2,6-dione], the DC50 in assay [1] is 4.94 nM; at Helios, no less than 10000 nM. Besides, the Dmax in assay [1] (setting [2]) came out at 79.9%.

In the case of `Cn1nccc1CN1CCC(c2c(F)cc3c(c2F)CN(C2CCC(=O)NC2=O)C3=O)CC1` (stereo not drawn) [Compound 102, 3-(4,6-difluoro-5-(1-((1-methyl-1H-pyrazol-5-yl)methyl)piperidin-4-yl)-1-oxoisoindolin-2-yl)piperidine-2,6-dione], the DC50 in assay [1] was 0.283 nM; on Helios, no less than 10000 nM. For the same molecule, the Dmax in assay [1] (setting [2]) was found to be 84.3%.

Turning to `O=C1CCC(N2Cc3c(cc(F)c(C4CCN(C5CCC5)CC4)c3F)C2=O)C(=O)N1` (stereo not drawn) [Compound 3, 3-(5-(1-cyclobutylpiperidin-4-yl)-4,6-difluoro-1-oxoisoindolin-2-yl)piperidine-2,6-dione], the DC50 is 4.37 nM in assay [1] and no less than 10000 nM at Helios. In assay [1] (setting [2]), the Dmax came out at 78.7%.

In the case of `O=C1CCC(N2Cc3cc(C4CCN(Cc5ccc6[nH]ccc6c5)CC4)c(F)cc3C2=O)C(=O)N1` (stereo not drawn) [Compound 89, 3-(5-(1-((1H-indol-5-yl)methyl)piperidin-4-yl)-6-fluoro-1-oxoisoindolin-2-yl)piperidine-2,6-dione], the DC50 in assay [1] is 2.67 nM; on Helios, no less than 10000 nM. Also, the Dmax in assay [1] (setting [2]) came to 94.2%.

Turning to `O=C1CCC(N2Cc3c(cc(F)c(C4C[C@H]5CC[C@@H](C4)N5Cc4ccc(C(F)F)cc4)c3F)C2=O)C(=O)N1` (stereo partly drawn) [Compound 128, 3-(5-((1R,5S)-8-(4-(difluoromethyl)benzyl)-8-azabicyclo[3.2.1]octan-3-yl)-4,6-difluoro-1-oxoisoindolin-2-yl)piperidine-2,6-dione], the DC50 in assay [1] was 17.4 nM; on Helios it was no less than 10000 nM. For the same molecule, the Dmax in assay [1] (setting [2]) stood at 87.2%.

On to `O=C1CCC(N2Cc3c(cc(F)c(C4CCN(CC5CCCC5)CC4)c3F)C2=O)C(=O)N1` (stereo not drawn) [Compound 112, 3-(5-(1-(cyclopentylmethyl)piperidin-4-yl)-4,6-difluoro-1-oxoisoindolin-2-yl)piperidine-2,6-dione], for which the results for the DC50 (in assay [1]; on Helios) were 3.23 nM and no less than 10000 nM, respectively. The Dmax in assay [1] (setting [2]) was 84.6%.

With `CS(=O)(=O)CCCN1CCC(c2c(F)cc3c(c2F)CN(C2CCC(=O)NC2=O)C3=O)CC1` (stereo not drawn) [Compound 121, 3-(4,6-difluoro-5-(1-(3-(methylsulfonyl)propyl)piperidin-4-yl)-1-oxoisoindolin-2-yl)piperidine-2,6-dione], the DC50 in assay [1] was 20.4 nM; at Helios, no less than 10000 nM. In assay [1] (setting [2]), the Dmax was 76.7%.

In the case of `C[C@@H](CO)CN1CCC(c2c(F)cc3c(c2F)CN(C2CCC(=O)NC2=O)C3=O)CC1` (mixture of isomers) [Compound 119, rac-3-(4,6-difluoro-5-(1-((R)-3-hydroxy-2-methylpropyl)piperidin-4-yl)-1-oxoisoindolin-2-yl)piperidine-2,6-dione], the values for the DC50 (in assay [1]; on Helios) were 8.65 nM and no less than 10000 nM, respectively. In assay [1] (setting [2]), the Dmax came out at 80.7%.

Consider `O=C1CCC(N2Cc3c(cc(F)c(C4CCN(Cc5nc6ccccc6s5)CC4)c3F)C2=O)C(=O)N1` (stereo not drawn) [Compound 58, 3-(5-(1-(benzo[d]thiazol-2-ylmethyl)piperidin-4-yl)-4,6-difluoro-1-oxoisoindolin-2-yl)piperidine-2,6-dione], for which the values for the DC50 (in assay [1]; at Helios) were 10.7 nM and no less than 10000 nM, respectively. In addition, the Dmax in assay [1] (setting [2]) came out at 86.3%.
